Results published in patent publication US20260265199A1, “CRYSTALLINE FORMS OF (R)-2-AMINO-5-(4-(2-(3,5-DIFLUOROPHENYL)-2-HYDROXYACETAMIDO)-2-METHYLPHENYL)-N-ISOPROPYLNICOTINAMIDE AND METHODS FOR USING THE SAME” (HIBERCELL, INC., priority 2023, published 2026).
Where a name gives a salt, the structure may show the parent alone. Read-outs that look alike come from different tables or passages of the source.

Columns and labels:
Type in all cases: physicochemical
[1] = Variable temperature study of Form B (cycling DSC, VT-XRPD)
Procedure: XRPD patterns were collected with a PANalytical X'Pert PRO MPD diffractometer using an incident beam of Cu Kα radiation produced using a long, fine-focus source and a nickel filter. The diffractometer was configured using the symmetric Bragg-Brentano geometry. Data were collected and analyzed using Data Collector software v. 5.5. Prior to the analysis, a silicon specimen (NIST SRM 640e) was analyzed to verify the observed position of the Si 111 peak is consistent with the NIST-certified position. A specimen of the sample was packed in a nickel-coated copper well. Anti-scatter slits (SS) were used to minimize the background generated by air scattering. Soller slits for the incident and diffracted beams were used to minimize broadening from axial divergence. Diffraction patterns were collected using a scanning position-sensitive detector (X'Celerator) located 240 mm from the sample. The data acquisition parameters for each pattern are disclosed, including the divergence slit (DS) and the incident-beam SS.
An Anton Paar TTK 450 stage was used to collect in-situ XRPD patterns as a function of temperature. The sample was heated with a resistance heater located directly under the sample holder, and the temperature was monitored with a platinum-100 resistance sensor located in the specimen holder. The heater was powered and controlled by an Anton Paar TCU 100 interfaced with Data Collector.
DSC was performed using a Mettler-Toledo DSC3+ differential scanning calorimeter. A tau lag adjustment was performed with indium, tin, and zinc. The temperature and enthalpy were adjusted with octane, phenyl salicylate, indium, tin, and zinc. The adjustment was then verified with octane, phenyl salicylate, indium, tin, and zinc. The sample was placed into a hermetically sealed aluminum DSC pan, and the weight was accurately recorded. The pan was then inserted into the DSC cell. A weighed aluminum pan configured as the sample pan was placed on the reference side of the cell. The pan lid was pierced prior to sample analysis. Samples were analyzed from −30° C. to 250° C. @ 10°/min. The cyclic DSC method heated from −30° C. to 100° C., returned to −30° C., then heated to 250° C. at 10°/min.
The thermal events associated with heating Form B, prepared according to Example 30, were further investigated by cycling DSC and variable temperature XRPD (FIG. 33 and FIG. 34, respectively). […] This phase transition was confirmed by VT-XRPD (see the diffraction pattern obtained at 100° C. in FIG. 34). During the first DSC cooling cycle, an exotherm at approximately 35° C. was observed. […] During the final DSC heating cycle, Form B first undergoes a phase transition to Material F at approximately 67° C. (endotherm). […] (endotherm) and immediately recrystallize as Form A (exotherm onset at approximately 164° C.). […] Determining which solid form was obtained after recrystallization was confirmed by VT-XRPD (the pattern obtained at approximately 175° C., FIG. 34).
It is believed that this solid state behavior can be explained due to the relative stability of Form B and Material F is reversed in passing the transition temperature. For enantiotropic systems where hysteresis is minimal within the timescale measured, the transition temperature must lie between the onset temperatures of the observed endotherm and exotherm. Therefore, a transition temperature of ~49° C. was estimated from the thermogram with the use of the lever rule.
The XRPD acquisition parameters used to collect the VT-XRPD data presented in Table 33 are as follows: X-ray Tube: Cu (1.54059 Å); voltage: 45 kV; amperage: 40 mA; scan range: 3.50-29.99° 2θ; step size: 0.017° 2θ; scan speed: 1.7° per minute; slit: DS: fixed slit ¼°; SS: fixed slit: ½°; revolution time: 0.0 null; and mode: reflection. The XRPD data collection times for the experiment are specified in Table 33.

[2] = Physical stability of Form C at ambient conditions (XRPD)
Procedure: The initial samples were then analyzed by XRPD. Thereafter, the vials were sealed and the samples were allowed to sit at ambient conditions for 9, 13, or 25 days (as designated in Table 35). The samples were then reanalyzed by XRPD.

[3] = Solubility of mono-fumarate Form A estimated by solvent addition, visual assessment
From the text: The solubility of Form A of the mono-fumarate salt of the compound of formula (I) was estimated using solvent addition method via visual assessment of the samples.

[4] = Slurry study of Form A of the mono-fumarate salt (XRPD of solids)
Procedure: XRPD patterns of samples were collected using with an X-ray diffractometer (Bruker D8 advance). The system was equipped with LynxEye detector. Samples were scanned from 3 to 40° 2θ, at a step size 0.02° 2θ. The tube voltage and current were 40 KV and 40 mA, respectively.
Slurry studies were conducted using 12 solvents at RT or 50° C. Solid samples were collected by filtration and analyzed by XRPD at a specific time.

Structure (SMILES): Cc1cc(NC(=O)[C@H](O)c2cc(F)cc(F)c2)ccc1-c1cnc(N)c(C(=O)NC(C)C)c1 [Form B, (R)-2-amino-5-(4-(2-(3,5-difluorophenyl)-2-hydroxyacetamido)-2-methylphenyl)-N-isopropylnicotinamide]
- Result (VT-XRPD) ([1]; 30° C., 1st scan in table order): Form B
- Result (VT-XRPD) ([1]; 30° C., 4th scan in table order): Material F
- Result (VT-XRPD) ([1]; 30° C., 8th scan in table order): Form A
- Result (VT-XRPD) ([1]; 75° C., 2nd scan in table order): Form B
- Result (VT-XRPD) ([1]; 75° C., 5th scan in table order): Material F
- Result (VT-XRPD) ([1]; 100° C., 3rd scan in table order): Material F
- Result (VT-XRPD) ([1]; 100° C., 6th scan in table order): Material F
- Result (VT-XRPD) ([1]; 175° C., 7th scan in table order): Form A^1
- Relative stability of Form B vs Material F (enantiotropes) ([1]; below the transition temperature): more stable, relative to Material F, below the transition temperature

Structure (SMILES): Cc1cc(NC(=O)[C@H](O)c2cc(F)cc(F)c2)ccc1-c1cnc(N)c(C(=O)NC(C)C)c1 [Form C, (R)-2-amino-5-(4-(2-(3,5-difluorophenyl)-2-hydroxyacetamido)-2-methylphenyl)-N-isopropylnicotinamide]
- Result (XRPD) ([2]; Acetone, ambient conditions, stored for 13 days): Form B (FIG. 38B)
- Result (XRPD) ([2]; Acetone, initial sample): Form B + Form C
- Result (XRPD) ([2]; MeCN, ambient conditions, stored for 25 days): Form B (FIG. 38D)
- Result (XRPD) ([2]; MeCN, initial sample): Form C (FIG. 38C)
- Result (XRPD) ([2]; MeCN/water, ambient conditions, stored for 9 days): Form C + Form B
- Result (XRPD) ([2]; MeCN/water, initial sample): Form C (FIG. 38E)
- Physical stability of Form C (XRPD) ([2]; ambient conditions, irrespective of solvent system used to prepare Form C): desolvates and either partially converts or fully converts to Form B within days
- Solid form (XRPD) after storage ([2]; sample obtained from acetonitrile and water, ambient conditions, 9 days): mixture of Form B and Form C
- Solid form (XRPD) after storage ([2]; sample obtained from acetonitrile, ambient conditions, 25 days): Form B

Structure (SMILES): Cc1cc(NC(=O)[C@H](O)c2cc(F)cc(F)c2)ccc1-c1cnc(N)c(C(=O)NC(C)C)c1 [Form A of the mono-fumarate salt, (R)-2-amino-5-(4-(2-(3,5-difluorophenyl)-2-hydroxyacetamido)-2-methylphenyl)-N-isopropylnicotinamide]
- solubility ([3]; EtOAc, organic solvent or mixture, thermodynamic from solid, EtOAc, read-out: Solubility): > 3 mg/mL
- solubility ([3]; EtOH, organic solvent or mixture, thermodynamic from solid, EtOH, read-out: Solubility): > 22.5 mg/mL
- solubility ([3]; IPA, organic solvent or mixture, thermodynamic from solid, IPA, read-out: Solubility): > 23.4 mg/mL
- solubility ([3]; IPAc, organic solvent or mixture, thermodynamic from solid, IPAc, read-out: Solubility): > 2.1 mg/mL
- solubility ([3]; MEK, organic solvent or mixture, thermodynamic from solid, MEK, read-out: Solubility): > 11.7 mg/mL
- solubility ([3]; MTBE, organic solvent or mixture, thermodynamic from solid, MTBE, read-out: Solubility): > 4.2 mg/mL
- solubility ([3]; MeCN, organic solvent or mixture, thermodynamic from solid, MeCN, read-out: Solubility): > 2.2 mg/mL
- solubility ([3]; MeOH): >53.2 mg/mL
- solubility ([3]; MeOH, organic solvent or mixture, thermodynamic from solid, MeOH, read-out: Solubility): > 50 mg/mL
- solubility ([3]; THF): >52.6 mg/mL
- solubility ([3]; THF, organic solvent or mixture, thermodynamic from solid, THF, read-out: Solubility): > 50 mg/mL
- solubility ([3]; acetone, organic solvent or mixture, thermodynamic from solid, Acetone, read-out: Solubility): > 13.4 mg/mL
- solubility ([3]; heptane, organic solvent or mixture, thermodynamic from solid, Heptane, read-out: Solubility): < 1 mg/mL
- solubility ([3]; isobutanol, organic solvent or mixture, thermodynamic from solid, Isobutanol, read-out: Solubility): > 11.1 mg/mL
- solubility ([3]; toluene, organic solvent or mixture, thermodynamic from solid, Toluene, read-out: Solubility): < 1.1 mg/mL
- solubility ([3]; water, thermodynamic from solid, Water, read-out: Solubility): < 1.1 mg/mL
- XRPD result after slurry ([4]; 2-Butanone, 50° C., 2 days): Mono-fumarate Form A
- XRPD result after slurry ([4]; 2-Butanone, room temperature, 5 days): Mono-fumarate Form A
- XRPD result after slurry ([4]; Acetone, 50° C., 2 days): Mono-fumarate Form A
- XRPD result after slurry ([4]; Acetone, room temperature, 5 days): Mono-fumarate Form A
- XRPD result after slurry ([4]; EtOAc, 50° C., 2 days): Low crystallinity
- XRPD result after slurry ([4]; EtOAc, room temperature, 5 days): Low crystallinity
- XRPD result after slurry ([4]; EtOH, room temperature, 5 days): Solid
- XRPD result after slurry ([4]; Heptane, 50° C., 2 days): Mono-fumarate Form A
- XRPD result after slurry ([4]; Heptane, room temperature, 5 days): Mono-fumarate Form A
- XRPD result after slurry ([4]; IPA, 50° C., 2 days): Hemi-fumarate Form A
- XRPD result after slurry ([4]; IPA, room temperature, 5 days): Hemi-fumarate Form A
- XRPD result after slurry ([4]; IPAc, 50° C., 2 days): Hemi-fumarate Form A
- XRPD result after slurry ([4]; IPAc, room temperature, 5 days): Low crystallinity
- XRPD result after slurry ([4]; Isobutanol, 50° C., 2 days): Hemi-fumarate Form A
- XRPD result after slurry ([4]; Isobutanol, room temperature, 5 days): Hemi-fumarate Form A
- XRPD result after slurry ([4]; MTBE, 50° C., 2 days): Hemi-fumarate Form A
- XRPD result after slurry ([4]; MTBE, room temperature, 5 days): Low crystallinity
- XRPD result after slurry ([4]; MeCN, room temperature, 5 days): Low crystallinity
- XRPD result after slurry ([4]; Toluene, 50° C., 2 days): Hemi-fumarate Form A
- XRPD result after slurry ([4]; Toluene, room temperature, 5 days): Low crystallinity
- XRPD result after slurry ([4]; Water, 50° C., 2 days): Alternative pattern
- XRPD result after slurry ([4]; Water, room temperature, 5 days): Alternative pattern
